In publication PMC8558150 (Acta Pharmaceutica Sinica. B, 2021):
Like-named read-outs stand apart in the source and are kept apart here. Peptide text beside a SMILES is read from it.

Columns and labels:
SARS-CoV-2 = conditions: read-out: EC50, secondary viral yield reduction assay; Vero E6 cells; cited from earlier work
SARS CoV-2 M^pro [1] = target: T1, SARS CoV-2 M^pro (Severe acute respiratory syndrome coronavirus 2, UniProt P0DTD1); format: cell-based
SARS CoV-2 M^pro [2] = target: T1, SARS CoV-2 M^pro; format: biochemical
SARS-CoV-2 M^pro = conditions: cited from earlier work; for IC50: read-out: FRET IC50
[3] = tested on: SARS-CoV-2 (isolate USA-WA1/2020); assay: Antiviral immunofluorescence assay in Calu-3 cells; format: cell-based; conditions: read-out: Antiviral EC50 in Calu-3 cells
cathepsin L = conditions: read-out: cathepsin L IC50; cited from earlier work
SARS-CoV M^pro = conditions: read-out: SARS-CoV M^pro IC50; cited from earlier work
SARS CoV-2 M^pro [4] = target: T1, SARS CoV-2 M^pro; conditions: cited from earlier work
SARS CoV-2 M^pro [5] = target: T1, SARS CoV-2 M^pro; assay: Thermal shift assay; format: binding

Row | Structure (SMILES) | result in FlipGFP assay (in words) (SARS CoV-2 M^pro [1]) | result in Protease-Glo luciferase assay (in words) (SARS CoV-2 M^pro [2]) | also measured
1 | CC(C)(C)NC(=O)N[C@H](C(=O)N1C[C@H]2[C@@H]([C@H]1C(=O)NC(CC1CCC1)C(=O)C(N)=O)C2(C)C)C(C)(C)C (some centres unmarked) [boceprevir] | – | – | EC50 (SARS-CoV-2): 1.95 µM
2 | CCCCCCNC(=O)n1cc(F)c(=O)[nH]c1=O [carmofur] | no inhibitory activity | no inhibitory activity | –
3 | CCOc1nc2cccc(C(=O)O)c2n1Cc1ccc(-c2ccccc2-c2nnn[nH]2)cc1 [candesartan] | – | – | Ki (SARS-CoV-2 M^pro): 0.18 ± 0.02 µM; IC50 (SARS-CoV-2 M^pro): 2.8 ± 0.3 µM
4 | CCN(CC)CCCC(C)Nc1ccnc2cc(Cl)ccc12 (centres unmarked) [chloroquine] | – | – | Ki (SARS-CoV-2 M^pro): 0.56 ± 0.12 µM
5 | CCCC(NC(=O)C(CC(C)C)NC(=O)OCc1ccccc1)C(=O)C(=O)NCc1ccccn1 (centres unmarked) [calpain inhibitor XII] | – | – | EC50 [3]: 14.8 µM; IC50 (cathepsin L): 0.00162 µM
6 | CC(C)c1nc(CN(C)C(=O)N[C@@H](CCN2CCOCC2)C(=O)N[C@H](CC[C@H](Cc2ccccc2)NC(=O)OCc2cncs2)Cc2ccccc2)cs1 [cobicistat] | not conclusive | – | –
7 | CC(C)c1nc(CN(C)C(=O)N[C@H](C(=O)N[C@@H](Cc2ccccc2)C[C@H](O)[C@H](Cc2ccccc2)NC(=O)OCc2cncs2)C(C)C)cs1 [ritonavir] | not active | not active | –
8 | Cc1cccc(C)c1OCC(=O)N[C@@H](Cc1ccccc1)[C@@H](O)C[C@H](Cc1ccccc1)NC(=O)[C@H](C(C)C)N1CCCNC1=O [lopinavir] | not conclusive | not active | IC50 (SARS-CoV M^pro): 50 µM
9 | COC(=O)N[C@H](C(=O)N[C@@H](Cc1ccccc1)[C@@H](O)CN(Cc1ccc(-c2ccccn2)cc1)NC(=O)[C@@H](NC(=O)OC)C(C)(C)C)C(C)(C)C [atazanavir] | not conclusive | – | –
10 | O=c1c2ccccc2[se]n1-c1ccccc1 [ebselen] | no inhibition | no inhibition | M^pro inhibition in FRET assay in the presence of DTT or GSH (in words) (SARS CoV-2 M^pro [4]): completely lost the M^pro inhibition
11 | O=c1cc(-c2ccccc2)oc2cc(O)c(O)c(O)c12 [baicalein] | no inhibition | no inhibition | –
12 | O=c1sn(-c2cccc3ccccc23)c(=O)n1Cc1ccccc1 [tideglusib] | no inhibitory activity | no inhibitory activity | –
13 | CC(C)=CC[C@@H](O)C1=CC(=O)c2c(O)ccc(O)c2C1=O [shikonin] | no inhibition | no inhibition | M^pro inhibition in FRET assay in the presence of DTT or GSH (in words) (SARS CoV-2 M^pro [4]): no inhibition
14 | CN(C)[C@@H]1C(O)=C(C(N)=O)C(=O)[C@@]2(O)C(O)=C3C(=O)c4c(O)cccc4[C@@](C)(O)[C@H]3[C@H](O)[C@@H]12 [oxytetracycline] | – | – | Ki (SARS-CoV-2 M^pro): 0.99 ± 0.06 µM
15 | CSCC[C@@H](C=O)NC(=O)[C@H](CC(C)C)NC(=O)[C@H](CC(C)C)NC(C)=O [calpain inhibitor II] (Ac-Leu-Leu-Met-aldehyde) | – | – | EC50 [3]: 30.3 µM; IC50 (cathepsin L): 0.00041 µM
16 | CCN(CC)C(=S)SSC(=S)N(CC)CC [disulfiram] | no inhibition | no inhibition | –
17 | CCC[C@H](NC(=O)[C@@H]1[C@H]2CCC[C@H]2CN1C(=O)[C@@H](NC(=O)[C@@H](NC(=O)c1cnccn1)C1CCCCC1)C(C)(C)C)C(=O)C(=O)NC1CC1 [telaprevir] | – | – | inhibition in FRET assay (SARS CoV-2 M^pro [4]; at 20 μmol/L): 31%
18 | CCC(C)SSc1ncc[nH]1 (centres unmarked) [PX-12] | no inhibitory activity | no inhibitory activity | –
19 | Cc1c(O)cccc1C(=O)N[C@@H](CSc1ccccc1)[C@H](O)CN1C[C@H]2CCCC[C@H]2C[C@H]1C(=O)NC(C)(C)C [nelfinavir] | not conclusive | – | –
20 | COC(=O)C1=C(C)NC(C)=C(C(=O)OCCN2CCN(C(c3ccccc3)c3ccccc3)CC2)C1c1cccc([N+](=O)[O-])c1 (centres unmarked) [manidipine] | no activity | no activity | binding to M^pro in thermal shift assay (in words) (SARS CoV-2 M^pro [5]): did not show binding; IC50 (SARS-CoV-2 M^pro; in the presence of 0.05% Tween-20): > 100 µM
